Test results as given in patent publication US20250346931A1, “METHODS FOR PRODUCING HALOGENATED COMPOUNDS” (BIGELOW LABORATORY FOR OCEAN SCIENCES, priority 2022, published 2025).
Like-named read-outs stand apart in the source and are kept apart here.

Assays:
[1] = tested on: rumen-derived microbial communities; assay: Inhibition of methane production in rumen-derived microbial culture; assay type: cell-based, dairy cattle; conditions: for IC50: Bos taurus, read-out: concentration giving 50% suppression of methane production
Protocol: FIG. 5 illustrates the production and testing process of small organic halogenated compounds for inhibition of methanogenesis. In this example, the small organic halogenated compounds produced by VBPO are incubated in a microbial culture system derived from rumen fluid obtained from dairy cattle, to determine their relative abilities at inhibiting methane production. Briefly, 1,1-dibromoacetone, co-product bromoform and derivative dibromomethane, were separately added to the culture systems. The rate of methane production was monitored in each reaction (FIGS. 6A-6C).

[2] = ciVCPO reaction velocity with PAA or H2O2 as peroxide source, Michaelis-Menten fit; assay type: biochemical
From the text: This Example describes a method for utilizing peracetic acid as a substrate for production of small, halogenated organic compounds in lieu of hydrogen peroxide using ciVCPO. PAAM is a readily available source of peracetic acid, consisting of 32% w/v peracetic acid and 6% w/v hydrogen peroxide. As peracetic acid is not an efficient two electron reductant, and unlike hydrogen peroxide, cannot produce oxygen in the presence of hypochlorous acid and catalytic quantities of chloride ions, hydrogen peroxide must be removed to avoid oxygen production employing the enzyme catalase, derived from bovine liver.
The reaction velocity is fitted according to Michaelis-Menten kinetics to give v=f([PAA] or [H2O2]).

[3] = rumen-derived microbial communities

Molecule: CC(=O)C(Br)Br [1,1-dibromoacetone]
- IC50 [1]: 125000 nM
- relative effectiveness for inhibiting methane production among compounds screened ([1]; compared with bromoform and dibromomethane): least effective

Molecule: BrC(Br)Br [bromoform, reference compound]
- IC50 [1, 3]: 200 nM

Molecule: BrCBr [dibromomethane, reference compound]
- IC50 [1, 3]: 150 nM

B1: ciVCPO: vanadium chloroperoxidase from Curvularia inaequalis produced in Pichia pastoris (protein, UniProt P49053 1-609, looked up)
Vanadium chloroperoxidase: MGSVTPIPLPKIDEPEEYNTNYILFWNHVGLELNRVTHTVGGPLTGPPLSARALGMLHLAIHDAYFSICPPTDFTTFLSPDTENAAYRLPSPNGANDARQAVAGAALKMLSSLYMKPVEQPNPNPGANISDNAYAQLGLVLDRSVLEAPGGVDRESASFMFGEDVADVFFALLNDPRGASQEGYHPTPGRYKFDDEPTHPVVLIPVDPNNPNGPKMPFRQYHAPFYGKTTKRFATQSEHFLADPPGLRSNADETAEYDDAVRVAIAMGGAQALNSTKRSPWQTAQGLYWAYDGSNLIGTPPRFYNQIVRRIAVTYKKEEDLANSEVNNADFARLFALVDVACTDAGIFSWKEKWEFEFWRPLSGVRDDGRPDHGDPFWLTLGAPATNTNDIPFKPPFPAYPSGHATFGGAVFQMVRRYYNGRVGTWKDDEPDNIAIDMMISEELNGVNRDLRQPYDPTAPIEDQPGIVRTRIVRHFDSAWELMFENAISRIFLGVHWRFDAAAARDILIPTTTKDVYAVDNNGATVFQNVEDIRYTTRGTREDPEGLFPIGGVPLGIEIADEIFNNGLKPTPPEIQPMPQETPVQKPVGQQPVKGMWEEEQAPVVKEAP
- Vmax, PAA relative to Vmax, H2O2 ([2]; FIG. 13 legend): approximately twice
- vmax and Km with PAA as substrate compared with hydrogen peroxide ([2]; constant NaCl 150 mM): higher vmax and Km than hydrogen peroxide
